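Each compound was tested at five concentrations against cells in 96-well plates for 48 hours. Here, GI50 denotes the concentration required for 50% inhibition of growth. The concentration for full growth arrest is given as TGI.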
What was measured:
Assay in all cases: DTP human tumour cell line panel, 48 h
[1] = system: LOX IMVI melanoma
[2] = system: HCT-15 colon
[3] = system: SNB-19 CNS
[4] = system: HCC-2998 colon
[5] = system: PC-3 prostate
[6] = system: HOP-62 NSCLC
[7] = system: HL-60(TB) leukemia
[8] = system: NCI-H226 lung
[9] = system: EKVX NSCLC
[10] = system: OVCAR-8 ovarian
[11] = system: SF-295 CNS
[12] = system: CCRF-CEM leukemia
[13] = system: NCI-H460 lung
[14] = system: HS 578T breast
[15] = system: OVCAR-5 ovarian
[16] = system: NCI-H23 lung
[17] = system: UACC-62 melanoma
[18] = system: OVCAR-3 ovarian
[19] = system: K-562 leukemia
[20] = system: A498 renal
[21] = system: MOLT-4 leukemia
[22] = system: SN12C renal
[23] = system: HOP-92 NSCLC
[24] = system: NCI/ADR-RES ovarian
[25] = system: A549 NSCLC
[26] = system: DU-145 prostate
[27] = system: SK-MEL-2 melanoma
[28] = system: ACHN renal
[29] = system: SR leukemia
[30] = system: BT-549 breast
[31] = system: KM12 colon
[32] = system: UACC-257 melanoma
[33] = system: SK-MEL-28 melanoma
[34] = system: SF-539 CNS
[35] = system: CAKI-1 renal
[36] = system: TK-10 renal
[37] = system: U251 CNS
[38] = system: OVCAR-4 ovarian
[39] = system: UO-31 renal
[40] = system: SW-620 colon
[41] = system: IGROV1 ovarian
[42] = system: HT29 colon
[43] = system: MDA-MB-231 breast
[44] = system: 786-0 renal
[45] = system: MCF7 breast
[46] = system: MALME-3M melanoma
[47] = system: HCT-116 colon
[48] = system: SK-MEL-5 melanoma
[49] = system: SF-268 CNS
[50] = system: RXF 393 renal
[51] = system: SK-OV-3 ovarian
[52] = system: MDA-MB-435
[53] = system: M14 melanoma
[54] = system: NCI-H522 lung
[55] = system: T-47D breast
[56] = system: SNB-75 CNS
[57] = system: COLO 205 colon
[58] = system: RPMI-8226 leukemia

O=C(NCCOCCOCCNc1cccc2c1C(=O)N(C1CCCNC1=O)C2=O)c1cc2c(o1)C(=O)c1ccccc1C2=O (stereo unspecified)
GI50 [1]: 1170 nM
TGI [1]: 3000 nM
GI50 [2]: 2060 nM
TGI [2]: 5500 nM
GI50 [3]: 2420 nM
TGI [3]: 9840 nM
GI50 [4]: 2010 nM
TGI [4]: 4020 nM
GI50 [5]: 2630 nM
TGI [5]: 46000 nM
GI50 [6]: 1910 nM
TGI [6]: 3370 nM
GI50 [7]: 2380 nM
TGI [7]: 6780 nM
GI50 [8]: 1780 nM
TGI [8]: 3950 nM
GI50 [9]: 2880 nM
TGI [9]: 10100 nM
GI50 [10]: 2310 nM
TGI [10]: 10600 nM
GI50 [11]: 1700 nM
TGI [11]: 3130 nM
GI50 [12]: 4480 nM
TGI [12]: > 100000 nM
GI50 [13]: 1850 nM
TGI [13]: 3590 nM
GI50 [14]: 2430 nM
TGI [14]: 7190 nM
GI50 [15]: 1770 nM
TGI [15]: 3190 nM
GI50 [16]: 313 nM
TGI [16]: 1790 nM
GI50 [17]: 1370 nM
TGI [17]: 2990 nM
GI50 [18]: 682 nM
TGI [18]: 2690 nM
GI50 [19]: 2750 nM
TGI [19]: 11100 nM
GI50 [20]: 1770 nM
TGI [20]: 3210 nM
GI50 [21]: 2400 nM
TGI [21]: 6010 nM
GI50 [22]: 1520 nM
TGI [22]: 2960 nM
GI50 [23]: 3310 nM
TGI [23]: 13600 nM
GI50 [24]: 10300 nM
TGI [24]: 32000 nM
GI50 [25]: 2110 nM
TGI [25]: 4800 nM
GI50 [26]: 1690 nM
TGI [26]: 3110 nM
GI50 [27]: 2110 nM
TGI [27]: 6100 nM
GI50 [28]: 2290 nM
TGI [28]: 6500 nM
GI50 [29]: 2630 nM
TGI [29]: > 100000 nM
GI50 [30]: 1590 nM
TGI [30]: 2980 nM
GI50 [31]: 2910 nM
TGI [31]: 10000 nM
GI50 [32]: 1450 nM
TGI [32]: 2890 nM
GI50 [33]: 2310 nM
TGI [33]: 4610 nM
GI50 [34]: 1750 nM
TGI [34]: 3180 nM
GI50 [35]: 2750 nM
TGI [35]: 9300 nM
GI50 [36]: 3390 nM
TGI [36]: 7140 nM
GI50 [37]: 1900 nM
TGI [37]: 3900 nM
GI50 [38]: 1410 nM
TGI [38]: 2730 nM
GI50 [39]: 2030 nM
TGI [39]: 4900 nM
GI50 [40]: 2350 nM
TGI [40]: 7520 nM
GI50 [41]: 1990 nM
TGI [41]: 5330 nM
GI50 [42]: 2930 nM
TGI [42]: 8050 nM
GI50 [43]: 2720 nM
TGI [43]: 9960 nM
GI50 [44]: 3260 nM
TGI [44]: 10900 nM
GI50 [45]: 1250 nM
TGI [45]: 3210 nM
GI50 [46]: 176 nM
TGI [46]: 401 nM
GI50 [47]: 2060 nM
TGI [47]: 5540 nM
GI50 [48]: 707 nM
TGI [48]: 1990 nM
GI50 [49]: 2390 nM
TGI [49]: 6350 nM
GI50 [50]: 1800 nM
TGI [50]: 3990 nM
GI50 [51]: 2870 nM
TGI [51]: 7930 nM
GI50 [52]: 1620 nM
TGI [52]: 3050 nM
GI50 [53]: 772 nM
TGI [53]: 2180 nM
GI50 [54]: 2000 nM
TGI [54]: 4770 nM
GI50 [55]: 2530 nM
TGI [55]: 8810 nM
GI50 [56]: 2650 nM
TGI [56]: 4610 nM
GI50 [57]: 2100 nM
TGI [57]: 4120 nM
GI50 [58]: 3290 nM
TGI [58]: 14100 nM
